The values that follow come from patent US20240269194A1, “COMPOSITIONS AND METHODS FOR ISLET CELL TRANSPLANTS” (City of Hope, priority 2021, published 2024).

Test [1] deals with T1, gastrin receptor CCKBR (Homo sapiens, UniProt P32239).
T1 construct: Human islets express the gastrin receptor CCKBR; from tissue; host or cells: isolated human pancreatic islets from donors
Put plainly: Gastrin receptor blockade with YM022, qPCR in human islets. The test is classed as cell-based. The conditions noted are these: YM022 together with 100 nM gastrin, donors with high HbA1c. As for the experimental part: To establish that gastrin effect is mediated through activation of the gastrin receptor CCKBR, islets were treated with either 100 nM gastrin or 100 nM gastrin together with the CCKBR antagonist YM022.
A general note: Quantitative PCR measures a nucleic acid by following its amplification.

Test [2] deals with T1D patients. The test is classed as in vivo, human. As for the experimental part: Gastrin is a natural hormone that is secreted by the stomach and is involved in fetal pancreas development. […] Building on these observations, it was tested whether gastrin treatment will improve islet engraftment, induced beta cell expansion/function, and enhanced islet transplant outcomes in T1D individuals. A gastrin analogue (GAST-17) was produced and obtained FDA-IND approval to evaluate its safety and efficacy in a Phase I/II, prospective, single-arm trial to improve outcomes in T1D recipients undergoing a single islet transplant and two 30-day courses for GAST-17. The trial has been initiated with the first two treated individuals achieving insulin independence with roughly half of the islet dose normally required.
The success of clinical islet transplantation depends on transplantation of adequate islet mass and minimizing graft loss secondary to ischemia and inflammation. After infusion into the portal vein, islets are exposed to damaging inflammatory factors (the so-called instant blood-mediated inflammatory reaction, IBMIR). This involves activation of the complement and coagulation cascades, ultimately resulting in clot formation and infiltration of leukocytes into the islets. The IBMIR may be triggered by islet surface molecules, such as tissue factor and collagen residues that are normally not in direct contact with the blood. Also, ischemic stress during islet isolation results in production of inflammatory mediators by islets. Strategies to mitigate the IBMIR include the treatment of recipients with anticoagulants or pre-conditioning islets with anti-inflammatory agents. As inflammatory reactions are thought to negatively impact islet engraftment in the early post-transplant period, etanercept, a TNFα mitigator, and anakinra, an IL-1 receptor antagonist, are used to limit acute transplant-related inflammation. […]
Treatment course 1. […] Subjects are monitored for adverse effects and assessed for preliminary efficacy at 1, 2.5, and 6 months after starting the first course of GAST-17. […]

For test [3], the system named is non-diabetic Wistar rats. Put plainly: Beta and alpha cell content of pancreas by laser scanning cytometry after 30-day treatment. The format is in vivo, rat. Here is the method:
The islet expansion effects of GAST-17 were evaluated in non-diabetic Wistar rats (10 males and 10 females in each group). At the end of 30-day treatment, animals were terminated, pancreata excised and immuno-stained for beta and alpha cell content using laser scanning cytometry (LSC) (FIGS. 2A and 2B).
Gastrin analogue, GAST-17, stimulates beta cell expansion. T2D individuals display a loss of beta cell numbers and function. Increasing beta cell mass is considered a possible therapy for T2D (37). The islet expansion effects of GAST-17 were evaluated in non-diabetic Wistar rats (10 males and 10 females in each group). At the end of 30-day treatment, pancreata were excised and stained for beta and alpha cell content counting using laser scanning cytometry (FIGS. 24A and 24B).

Test [4] has as its system transplanted human islets. Put plainly: Human islets transplanted to livers of NOD mice: 18F-TCE4 microPET, insulin staining, blood glucose. The test is classed as in vivo, mouse. The note with it: 150 μg/kg/dose three times daily, 30 days. As for the experimental part: Isolated human islets were transplanted (Tx) to the livers of NOD mice followed by GAST-17 treatment for 30 days (150 μg/kg/dose, injected three times daily) (Tx+Treated, n=7) and compared to mice receiving islet transplant alone (Tx only, n=5) and untreated controls (Normal, n=5). After completion of treatment, whole mice and organs of interest were imaged (in vivo and ex vivo) with ^18F-TC-Exendin-4 (TCE4) using microPET and a high specific activity labeling technique developed at COH for targeting islets (49). […] Beta cell mass was calculated as percent beta cell area of the total cell surface area found on immunolabeled tissue sections. Data from 4 livers from mice treated with islet transplant alone (“−Gastrin”) and five livers from mice treated with islet transplant and gastrin treatment (“+Gastrin”) (˜32 slides per liver) were assessed.
Gastrin analogue, GATS-17, promotes expansion/neogenesis of transplanted human islets. Isolated human islets were transplanted (Tx) into livers of NOD/SCID mice followed by GAST-17 treatment for 30 days (150 μg/kg/dose, injected three times daily) (Tx+Treated, n=7) and compared to mice receiving islet transplant alone (Tx only, n=5) and untreated controls (Normal, n=5). After completion of treatment, whole mice and organs of interest were imaged (in vivo and ex vivo) with ^18F-TC-Exendin-4 (TCE4) using microPET (a high specific activity labeling technique developed at COH for targeting islets).

For test [5], the system named is human islets. Put plainly: qPCR gene expression in isolated human islets treated for 48 hours. The test is classed as cell-based. As for the experimental part:
Isolated human islets from 11 donors with varied glycemic control (HbA1c 5.2-10.4) were treated with GAST-17 for 48 hours and gene expression was analyzed by qPCR. […] Gene expression levels were not increased in islets from donors with an HbA1c <6.0 (FIG. 9). The increase in insulin mRNA correlated with the HbA1c levels, with higher insulin transcripts seen in islets from donors with more elevated HbA1c (FIG. 10).

Test [6] deals with human islets. Put plainly: Long-term human islet culture with and without GAST-17, inflammatory gene expression. The note with it: non-diabetic donors, long-term culture (1516 days), 21% oxygen. The test is classed as cell-based. As for the experimental part:
Long-term islet culture is associated with expression of inflammatory cytokines and islet stress/damage. Human islets from non-diabetic donors were cultured with and without GAST-17 long-term (1516 days) at normal oxygen concentrations (21%).

Test [7] relates to human islets. Put plainly: Human islets challenged with inflammatory cytokines, glucose-mediated insulin secretion. The test is classed as cell-based. The note with it: inflammatory cytokine challenge. Here is the method: Gastrin is expressed in insulin^+ and somatostatin^+ cells in islets from people with T2D. As noted, gastrin increased insulin/somatostatin in delta cells, and this correlated positively with islet donor A1c levels (64). Extending these published and new findings, human islets were challenged with inflammatory cytokines (to mimic the harsh environment of transplantation) in the presence and absence of GAST-17 and glucose-mediated insulin secretion was determined.

The mark [8] stands for this setting: donors HbA1c >6.0 (n=5), P<0.0001.

Entries after “also recorded” stand apart in the source; their conditions may differ.

T1 sequence (P32239 whole entry): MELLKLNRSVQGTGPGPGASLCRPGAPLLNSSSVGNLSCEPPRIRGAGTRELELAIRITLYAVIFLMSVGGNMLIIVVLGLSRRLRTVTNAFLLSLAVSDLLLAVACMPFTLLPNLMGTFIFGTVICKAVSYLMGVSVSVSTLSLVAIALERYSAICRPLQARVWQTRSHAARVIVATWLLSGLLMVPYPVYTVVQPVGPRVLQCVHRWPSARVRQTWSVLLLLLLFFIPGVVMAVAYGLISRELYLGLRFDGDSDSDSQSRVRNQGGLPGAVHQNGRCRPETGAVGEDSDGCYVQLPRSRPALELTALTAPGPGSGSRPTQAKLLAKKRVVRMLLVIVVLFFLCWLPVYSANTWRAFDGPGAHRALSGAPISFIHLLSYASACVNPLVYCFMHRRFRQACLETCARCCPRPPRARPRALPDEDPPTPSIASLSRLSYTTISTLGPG

As for `Cc1cccc(NC(=O)N[C@@H]2N=C(c3ccccc3)c3ccccc3N(CC(=O)c3ccccc3C)C2=O)c1` [YM022], in test [1], the “insulin, somatostatin and glucagon mRNA levels” value is “remained un-changed”.

As to [Leu^15] Gastrin-17 [GAST-17], the insulin independence entry in test [2] (first two T1D patients, single islet transplant <6,100 IEQ/kg) was “achieving insulin independence with half of the islet mass normally required”. For the same compound, the “engraftment and blood glucose normalization” value in test [2] (two T1D individuals, 15 μg/kg twice daily, month 1 and 7, <6,100 IEQ/kg) is “rapid engraftment and total normalization of blood glucose”. Besides, the “time to insulin freedom” value in test [2] (two patients, single IT (<6,100 IEQ/kg BW)) was “achieved insulin freedom within two weeks”. Moreover, in test [3] (30-day treatment vs controls), the “percentage of alpha cells” value was “did not change”. Moreover, the “average percentage of beta cells of total cells per slide” value in test [3] (30-day treatment, all treatment groups vs controls) is on record as “significantly increased”. Further, the “native beta cell expansion, ex vivo imaging of the pancreas” value in test [4] (p=0.000063) is listed as “significant expansion”. The “18F-TCE4 uptake by islet grafts in liver, in vivo (whole body images)” value in test [4] (vs control group, p=0.000015) is “significantly increased; also recorded: significantly higher”. For the same compound, the “18F-TCE4 uptake by islet grafts, ex vivo (excised liver)” value in test [4] (vs control group, p=0.000036) is on record as “significantly increased; also recorded: significantly higher”. Further, in test [5] (donors HbA1c <6.0), the “gene expression levels (insulin, somatostatin, glucagon)” value is given as “not increased”. For the same compound, in test [5] (setting [8]), the insulin transcripts entry is given as “significant increase” and the somatostatin transcripts result was “significant increase”. Also, in test [5] (donors HbA1c >6.0 (n=5), P<0.02), the glucagon transcripts entry was “significant increase”. Also, the “mRNA levels of transcription factors MAFA, MNX1, NKX2.2, NKX6.1, PDX1 and HHEX” value in test [5] (only in HbA1c >6.0 group) was “significant increases”. Further, in test [6], the “expression of IL-10” value was “increased expression of IL-10” and the “islet expression of inflammatory genes” value is given as “reduced islet expression of inflammatory genes”. In test [7], the glucose-mediated insulin secretion entry is “enhanced insulin secretion”, the “human islet damage from inflammatory cytokines” value is listed as “reduced human islet damage from inflammatory cytokines” and the “insulin+/somatostatin+ cell numbers” value was “increased insulin+/somatostatin+ cell numbers”.
